Measured values published in US10584117B2, “1,3,4-oxadiazole amide derivative compound as histone deacetylase 6 inhibitor, and pharmaceutical composition containing same” (Chong Kun Dang Pharmaceutical Corp., priority 2015, dated 2020).

Target: T1, human recombinant HDAC6 (Homo sapiens, UniProt Q9UBN7)
T1 construct: purchased Calbiochem 382180
T1 sequence (Q9UBN7 1-1215): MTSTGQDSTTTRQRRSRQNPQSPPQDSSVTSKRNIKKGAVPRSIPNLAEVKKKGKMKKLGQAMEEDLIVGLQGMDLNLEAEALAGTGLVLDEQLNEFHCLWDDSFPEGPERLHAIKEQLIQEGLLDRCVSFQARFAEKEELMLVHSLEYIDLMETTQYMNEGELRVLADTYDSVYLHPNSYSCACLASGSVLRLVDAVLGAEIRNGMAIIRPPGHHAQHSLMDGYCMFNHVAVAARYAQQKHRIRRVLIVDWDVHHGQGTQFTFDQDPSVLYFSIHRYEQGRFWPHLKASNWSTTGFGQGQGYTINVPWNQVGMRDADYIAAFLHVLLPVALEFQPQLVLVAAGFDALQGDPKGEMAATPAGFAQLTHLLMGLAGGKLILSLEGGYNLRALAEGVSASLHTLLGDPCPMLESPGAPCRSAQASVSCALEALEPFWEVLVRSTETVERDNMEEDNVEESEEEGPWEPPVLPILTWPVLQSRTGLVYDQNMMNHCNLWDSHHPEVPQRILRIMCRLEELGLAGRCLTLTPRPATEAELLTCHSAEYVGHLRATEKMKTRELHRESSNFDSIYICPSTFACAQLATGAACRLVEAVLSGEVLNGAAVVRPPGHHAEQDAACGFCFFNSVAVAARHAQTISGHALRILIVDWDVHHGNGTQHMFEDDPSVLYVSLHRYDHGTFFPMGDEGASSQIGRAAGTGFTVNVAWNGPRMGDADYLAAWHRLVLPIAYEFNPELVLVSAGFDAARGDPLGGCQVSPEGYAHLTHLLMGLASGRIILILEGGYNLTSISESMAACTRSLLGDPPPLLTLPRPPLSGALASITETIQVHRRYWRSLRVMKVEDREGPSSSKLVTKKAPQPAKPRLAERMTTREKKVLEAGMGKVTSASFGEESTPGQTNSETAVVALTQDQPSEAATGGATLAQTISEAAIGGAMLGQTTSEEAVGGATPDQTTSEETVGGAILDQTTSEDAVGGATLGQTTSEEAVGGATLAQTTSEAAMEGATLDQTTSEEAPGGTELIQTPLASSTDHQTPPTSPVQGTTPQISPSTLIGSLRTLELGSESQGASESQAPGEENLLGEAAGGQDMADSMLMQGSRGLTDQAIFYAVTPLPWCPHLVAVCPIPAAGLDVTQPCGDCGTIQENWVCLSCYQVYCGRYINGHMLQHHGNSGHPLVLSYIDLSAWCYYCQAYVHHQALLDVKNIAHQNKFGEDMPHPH
Experiment: HDAC enzyme activity inhibition assay (HDAC6, fluorimetric kit)
Format: biochemical
Details: for HDAC6 selectivity (fold): HDAC6 versus HDAC1; for IC50: same protocol as the HDAC1 test
How it was run: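 Fluorimetric kit assay: human recombinant HDAC1 or HDAC6 (0.3 μg) reacted with 10 μM Fluor de Lys-SIRT1 substrate and 5-fold serially diluted compound for 60 minutes at 30° C, followed by 30 minutes of developer. Fluorescence was read at Ex 360/Em 460, and IC50 values were calculated from it.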

| SMILES | HDAC6 selectivity (fold) | IC50 [nM] |
| --- | --- | --- |
| O=C(c1ccncc1)N(Cc1ccc(-c2nnc(C(F)(F)F)o2)cc1F)c1cccc(F)c1 [Compound 11188, N-(2-fluoro-4-(5-(trifluoromethyl)-1,3,4-oxadiazol-2-yl)benzyl)-N-(3-fluorophenyl)isonicotinamide] | 935 | 107 |
| O=C(c1ccccc1)N(Cc1ccc(-c2nnc(C(F)(F)F)o2)cc1)c1ccccc1 [Compound 11107, N-phenyl-N-(4-(5-(trifluoromethyl)-1,3,4-oxadiazol-2-yl)benzyl)benzamide] | 196 | 509 |
| CCN1CCC(C(=O)N(Cc2ccc(-c3nnc(C(F)(F)F)o3)cc2)c2ccccc2)CC1 [Compound 11141, 1-ethyl-N-phenyl-N-(4-(5-(trifluoromethyl)-1,3,4-oxadiazol-2-yl)benzyl)piperidine-4-carboxamide] | 306 | 327 |
| CC(=O)N(Cc1ccc(-c2nnc(C(F)(F)F)o2)cc1)c1ccccc1 [Compound 11105, N-phenyl-N-(4-(5-(trifluoromethyl)-1,3,4-oxadiazol-2-yl)benzyl)acetamide] | 524 | 191 |
| CC(C)N1CCC(C(=O)N(Cc2ccc(-c3nnc(C(F)F)o3)cc2F)c2ccccc2)CC1 [Compound 11210, N-(4-(5-(difluoromethyl)-1,3,4-oxadiazol-2-yl)-2-fluorobenzyl)-1-isopropyl-N-phenylpiperidine-4-carboxamide] | 418 | 239 |
| CC(=O)N1CCC(C(=O)N(Cc2ccc(-c3nnc(C(F)F)o3)cc2F)c2ccccc2)CC1 [Compound 11211, 1-acetyl-N-(4-(5-(difluoromethyl)-1,3,4-oxadiazol-2-yl)-2-fluorobenzyl)-N-phenylpiperidine-4-carboxamide] | 1351 | 74 |
| CC(=O)N1CCN(CC(=O)N(Cc2ccc(-c3nnc(C(F)F)o3)cc2F)c2ccc(F)c(Cl)c2)CC1 [Compound 11611, 2-(4-acetylpiperazin-1-yl)-N-(3-chloro-4-fluorophenyl)-N-(4-(5-(difluoromethyl)-1,3,4-oxadiazol-2-yl)-2-fluorobenzyl)acetamide] | 625 | 160 |
| O=C(c1cccnc1)N(Cc1ccc(-c2nnc(C(F)F)o2)cn1)c1cccc(F)c1 [Compound 11376, N-((5-(5-(difluoromethyl)-1,3,4-oxadiazol-2-yl)pyridin-2-yl)methyl)-N-(3-fluorophenyl)nicotinamide] | 4167 | 24 |
| O=C(C1CCN(C(=O)C(F)(F)F)CC1)N(Cc1ccc(-c2nnc(C(F)(F)F)o2)cc1F)c1ccccc1 [Compound 11206, N-(2-fluoro-4-(5-(trifluoromethyl)-1,3,4-oxadiazol-2-yl)benzyl)-N-phenyl-1-(2,2,2-trifluoroacetyl)piperidine-4-carboxamide] | 269 | 372 |
| Cl.O=C(C1CCNCC1)N(Cc1ccc(-c2nnc(C(F)(F)F)o2)cc1)c1ccccc1 [Compound 11137, N-phenyl-N-(4-(5-(trifluoromethyl)-1,3,4-oxadiazol-2-yl)benzyl)piperidine-4-carboxamide hydrochloride] | 275 | 364 |
| CC(=O)N(Cc1ccc(-c2nnc(C(F)F)o2)cc1F)c1ccccc1 [Compound 11247, N-(4-(5-(difluoromethyl)-1,3,4-oxadiazol-2-yl)-2-fluorobenzyl)-N-phenylacetamide] | 1887 | 53 |
| O=C(CN1CCS(=O)(=O)CC1)N(Cc1ccc(-c2nnc(C(F)F)o2)cc1F)c1ccc(F)c(Cl)c1 [Compound 11610, N-(3-chloro-4-fluorophenyl)-N-(4-(5-(difluoromethyl)-1,3,4-oxadiazol-2-yl)-2-fluorobenzyl)-2-(1,1-dioxidothiomorpholino)acetamide] | 690 | 145 |
| O=C(C1CCN(C2COC2)CC1)N(Cc1ccc(-c2nnc(C(F)F)o2)cc1F)c1ccccc1 [Compound 11622, N-(4-(5-(difluoromethyl)-1,3,4-oxadiazol-2-yl)-2-fluorobenzyl)-1-(oxetan-3-yl)-N-phenylpiperidine-4-carboxamide] | 714 | 140 |
| O=C(C1CCN(C(=O)C(F)(F)F)CC1)N(Cc1ccc(-c2nnc(C(F)(F)F)o2)cc1)c1ccccc1 [Compound 11164, N-phenyl-1-(2,2,2-trifluoroacetyl)-N-(4-(5-(trifluoromethyl)-1,3,4-oxadiazol-2-yl)benzyl)piperidine-4-carboxamide] | 298 | 336 |
| CN1CCC(C(=O)N(Cc2ccc(-c3nnc(C(F)(F)F)o3)cc2F)c2ccccc2)CC1 [Compound 11200, N-(2-fluoro-4-(5-(trifluoromethyl)-1,3,4-oxadiazol-2-yl)benzyl)-1-methyl-N-phenylpiperidine-4-carboxamide] | 763 | 131 |
| CCS(=O)(=O)N1CC(C(=O)N(Cc2ccc(-c3nnc(C(F)F)o3)cc2F)c2cccc(F)c2)C1 [Compound 11334, N-(4-(5-(difluoromethyl)-1,3,4-oxadiazol-2-yl)-2-fluorobenzyl)-1-(ethylsulfonyl)-N-(3-fluorophenyl)azetidine-3-carboxamide] | 2632 | 38 |
| O=C(CN1CCN(C2COC2)CC1)N(Cc1ccc(-c2nnc(C(F)F)o2)cc1F)c1ccc(F)c(Cl)c1 [Compound 11614, N-(3-chloro-4-fluorophenyl)-N-(4-(5-(difluoromethyl)-1,3,4-oxadiazol-2-yl)-2-fluorobenzyl)-2-(4-(oxetan-3-yl)piperazin-1-yl)acetamide] | 1190 | 84 |
| CC(C)C(=O)N1CC(C(=O)N(Cc2ccc(-c3nnc(C(F)(F)F)o3)cc2)c2ccccc2)C1 [Compound 11158, 1-isobutyryl-N-phenyl-N-(4-(5-(trifluoromethyl)-1,3,4-oxadiazol-2-yl)benzyl)azetidine-3-carboxamide] | 1111 | 90 |
| CC(C)C(=O)N1CCC(C(=O)N(Cc2ccc(-c3nnc(C(F)(F)F)o3)cc2F)c2ccccc2)CC1 [Compound 11205, N-(2-fluoro-4-(5-(trifluoromethyl)-1,3,4-oxadiazol-2-yl)benzyl)-1-isobutyryl-N-phenylpiperidine-4-carboxamide] | 332 | 301 |
| CCN1CC(C(=O)N(Cc2ccc(-c3nnc(C(F)F)o3)cc2F)c2ccccc2)C1 [Compound 11239, N-(4-(5-(difluoromethyl)-1,3,4-oxadiazol-2-yl)-2-fluorobenzyl)-1-ethyl-N-phenylazetidine-3-carboxamide] | 3846 | 26 |
| CC(C)(C)OC(=O)N1CCC(C(=O)N(Cc2ccc(-c3nnc(C(F)(F)F)o3)cc2)c2ccccc2)CC1 [Compound 11135, tert-butyl 4-(phenyl(4-(5-(trifluoromethyl)-1,3,4-oxadiazol-2-yl)benzyl)carbamoyl)piperidine-1-carboxylate] | 36 | 2750 |
